A short description of data set [1]: Test B: Cytotoxicity Assay. It counts as cell-based. Particulars: human; uninfected MT-4 cells, same protocol as Test A, 5 days. How it is done:
(§1) MT-4 cells were next mixed with HIV-IIIb at an m.o.i of 0.003 for 1 hour, after which time 35 μL of virus/cell mixture (2000 cells) was immediately added to each well containing 40 μL of diluted compound. The plates were then incubated at 37° C. for 5 days. […] Cell lysis was carried out by incubating at room temperature for 10 min and then chemiluminescence was read.
(§2) Test B: Cytotoxicity Assay
(§3) Compound cytotoxicity and the corresponding CC50 values was determined using the same protocol as described in the antiviral assay (Test A) except that uninfected cells were used.

The next data set has as its system HIV-IIIb. Nature of the data set: Test A: Antiviral Assay in MT4 Cells. It counts as cell-based, HIV-1. The note with it: MT-4 cells infected with HIV-IIIb, 5 days, calculated from the dose response curve, values above 100 normalized to 100%; for inhibition at 0.2 µM / inhibition at 2 µM: Human immunodeficiency virus 1, IIIB, MT4, 120 h; for inhibition at 0.2 µM: read-out: % inhibition at 0.2 μM (percent inhibition of virus-induced cell killing), 0.2 μM drug concentration; for inhibition at 2 µM: read-out: % inhibition at 2 μM (percent inhibition of virus-induced cell killing), 2 μM drug concentration; for % inhibition at 0.2 μM (percent inhibition of virus-induced cell killing): 0.2 μM drug concentration; for % inhibition at 2 μM (percent inhibition of virus-induced cell killing): 2 μM drug concentration. The procedure:
Test A: Antiviral Assay in MT4 Cells
as §1
The data above represent an average over time of each assay for each compound. […] Thus, the data reported in the tables include the data reported in the priority document, as well as data from assays run in the intervening period.

The next data set concerns uninfected MT-4 cells. Nature of the data set: Test B: Cytotoxicity Assay. Type of data set: cell-based. How it is done:
as §1, §2, §3

As for `CC(C)(O)C#Cc1ccc(-c2cccc3c(N)n[nH]c23)c([C@H](Cc2cc(F)cc(F)c2)NC(=O)Cn2nc(C(F)(F)F)c3c2C(F)(F)[C@@H]2C[C@H]32)n1` [Compound 29B, N—((S)-1-(3-(3-amino-1H-indazol-7-yl)-6-(3-hydroxy-3-methylbut-1-yn-1-yl)pyridin-2-yl)-2-(3,5-difluorophenyl)ethyl)-2-((3bS,4aR)-5,5-difluoro-3-(trifluoromethyl)-3b,4,4a,5-tetrahydro-1H-cyclopropa[3,4]cyclopenta[1,2-c]pyrazol-1-yl)acetamide], the CC50 at 5 days in data set [1] came to 15.3 µM. In the data set with HIV-IIIb, the inhibition at 0.2 µM was 80% and the inhibition at 2 µM was 81%.

In data set [1], `Cn1nc(NS(C)(=O)=O)c2cccc(-c3ccc(C#C[C@@H](N)CO)nc3[C@H](Cc3cc(F)cc(F)c3)NC(=O)Cn3nc(C(F)(F)F)c4c3C(F)(F)[C@@H]3C[C@H]43)c21` [Compound 59B, N—((S)-1-(6-((R)-3-amino-4-hydroxybut-1-yn-1-yl)-3-(1-methyl-3-(methylsulfonamido)-1H-indazol-7-yl)pyridin-2-yl)-2-(3,5-difluorophenyl)ethyl)-2-((3bS,4aR)-5,5-difluoro-3-(trifluoromethyl)-3b,4,4a,5-tetrahydro-1H-cyclopropa[3,4]cyclopenta[1,2-c]pyrazol-1-yl)acetamide] displayed a cytotoxic concentration (CC50) at 5 days of 22.4 µM. Also, in the data set on HIV-IIIb, the inhibition at 0.2 µM was 94% and the inhibition at 2 µM is 94%.

In data set [1], `Cc1ccc(-c2ccc(C#CC(C)(C)O)nc2[C@H](Cc2cc(F)cc(F)c2)NC(=O)Cn2nc(C(F)F)c3c2C(F)(F)[C@@H]2C[C@H]32)c2c1c(NS(N)(=O)=O)nn2C` [Compound 71, 2-((3bS,4aR)-3-(difluoromethyl)-5,5-difluoro-3b,4,4a,5-tetrahydro-1H-cyclopropa[3,4]cyclopenta[1,2-c]pyrazol-1-yl)-N—((S)-2-(3,5-difluorophenyl)-1-(3-(1,4-dimethyl-3-(sulfamoylamino)-1H-indazol-7-yl)-6-(3-hydroxy-3-methylbut-1-yn-1-yl)pyridin-2-yl)ethyl)acetamide] came in with a CC50 at 5 days of 9.51 µM. Also, in the data set with HIV-IIIb, the inhibition at 0.2 µM is 87% and the inhibition at 2 µM was 87%.

In data set [1], `CC(C)(C)C#Cc1ccc(-c2cccn3c(NS(C)(=O)=O)nnc23)c([C@H](Cc2cc(F)cc(F)c2)NC(=O)Cn2nc(C(F)F)c3c2C(F)(F)[C@@H]2C[C@H]32)n1` [Compound 134, 2-((3bS,4aR)-3-(difluoromethyl)-5,5-difluoro-3b,4,4a,5-tetrahydro-1H-cyclopropa[3,4]cyclopenta[1,2-c]pyrazol-1-yl)-N—((S)-2-(3,5-difluorophenyl)-1-(6-(3,3-dimethylbut-1-yn-1-yl)-3-(3-(methylsulfonamido)-[1,2,4]triazolo[4,3-a]pyridin-8-yl)pyridin-2-yl)ethyl)acetamide] yielded a CC50 at 5 days of 28 µM. For the same compound, in the data set on HIV-IIIb, the inhibition at 0.2 µM was 82% and the inhibition at 2 µM was 83%.

`COc1cc(-c2ccc(Cl)c3c(NS(C)(=O)=O)nn(C)c23)c([C@H](Cc2cc(F)cc(F)c2)NC(=O)Cn2nc(C(F)(F)F)c3c2C(F)(F)[C@@H]2C[C@H]32)nc1C#CC(C)(C)O` [Compound 135B, N—((S)-1-(3-(4-chloro-1-methyl-3-(methylsulfonamido)-1H-indazol-7-yl)-6-(3-hydroxy-3-methylbut-1-yn-1-yl)-5-methoxypyridin-2-yl)-2-(3,5-difluorophenyl)ethyl)-2-((3bS,4aR)-5,5-difluoro-3-(trifluoromethyl)-3b,4,4a,5-tetrahydro-1H-cyclopropa[3,4]cyclopenta[1,2-c]pyrazol-1-yl)acetamide]: it took 14.2 µM to reach half-maximal cytotoxicity in data set [1] (CC50 at 5 days). Besides, in the data set on HIV-IIIb, the inhibition at 0.2 µM was 93% and the inhibition at 2 µM was 93%.

For `CCC(O)C#Cc1ccc(-c2ccc(Cl)c3c(NS(C)(=O)=O)nn(C)c23)c([C@H](Cc2cc(F)cc(F)c2)NC(=O)Cn2nc(C(F)(F)F)c3c2C(F)(F)[C@@H]2C[C@H]32)n1` (stereo partly drawn) [Compound 145, N-((1S)-1-(3-(4-chloro-1-methyl-3-(methylsulfonamido)-1H-indazol-7-yl)-6-(3-hydroxypent-1-yn-1-yl)pyridin-2-yl)-2-(3,5-difluorophenyl)ethyl)-2-((3bS,4aR)-5,5-difluoro-3-(trifluoromethyl)-3b,4,4a,5-tetrahydro-1H-cyclopropa[3,4]cyclopenta[1,2-c]pyrazol-1-yl)acetamide], the CC50 at 5 days in data set [1] stood at 8.69 µM. Moreover, in the data set on HIV-IIIb, the inhibition at 0.2 µM is 99% and the inhibition at 2 µM is 99%.

In the data set with uninfected MT-4 cells, `Cn1nc(NS(C)(=O)=O)c2c(Cl)ccc(-c3ccc(C#CC(C)(C)O)nc3[C@H](Cc3cc(F)cc(F)c3)NC(=O)Cn3nc(C4(O)CC4)c4c3CCCC4)c21` [Compound 156E, (S)—N-(1-(3-(4-chloro-1-methyl-3-(methylsulfonamido)-1H-indazol-7-yl)-6-(3-hydroxy-3-methylbut-1-yn-1-yl)pyridin-2-yl)-2-(3,5-difluorophenyl)ethyl)-2-(3-(1-hydroxvcyclopropyl)-4,5,6,7-tetrahydro-1H-indazol-1-yl)acetamide] returned a CC50 of 25.6 µM. Besides, in the data set on HIV-IIIb, the “% inhibition at 0.2 μM (percent inhibition of virus-induced cell killing)” value is on record as 78% and the “% inhibition at 2 μM (percent inhibition of virus-induced cell killing)” value was 78%.

For `Cn1nc(NS(C)(=O)=O)c2c(Cl)ccc(-c3ccc(-c4ccccn4)nc3[C@H](Cc3cc(F)cc(F)c3)NC(=O)Cn3nc(C(F)(F)F)c4c3C(F)(F)[C@@H]3C[C@H]43)c21` [Compound 172, N—((S)-1-(5-(4-chloro-1-methyl-3-(methylsulfonamido)-1H-indazol-7-yl)-[2,2′-bipyridin]-6-yl)-2-(3,5-difluorophenyl)ethyl)-2-((3bS,4aR)-5,5-difluoro-3-(trifluoromethyl)-3b,4,4a,5-tetrahydro-1H-cyclopropa[3,4]cyclopenta[1,2-c]pyrazol-1-yl)acetamide], the midpoint of cytotoxicity in data set [1], the CC50 at 5 days, lay at 0.061 µM.

The compound `Cn1cc(-c2ccc(-c3ccc(Cl)c4c(NS(C)(=O)=O)nn(C)c34)c([C@H](Cc3cc(F)cc(F)c3)NC(=O)Cn3nc(C(F)(F)F)c4c3C(F)(F)[C@@H]3C[C@H]43)n2)cn1` [Compound 173, N—((S)-1-(3-(4-chloro-1-methyl-3-(methylsulfonamido)-1H-indazol-7-yl)-6-(1-methyl-1H-pyrazol-4-yl)pyridin-2-yl)-2-(3,5-difluorophenyl)ethyl)-2-((3bS,4aR)-5,5-difluoro-3-(trifluoromethyl)-3b,4,4a,5-tetrahydro-1H-cyclopropa[3,4]cyclopenta[1,2-c]pyrazol-1-yl)acetamide] showed a CC50 at 5 days in data set [1] of over 43.7 µM. In addition, in the data set with HIV-IIIb, the inhibition at 0.2 µM was 92% and the inhibition at 2 µM is 92%.

`Cn1nc(NS(C)(=O)=O)c2c(Cl)ccc(-c3ccc(C#CC(C)(C)O)nc3[C@H](Cc3cccc(F)c3)NC(=O)Cn3nc(C(F)(F)F)c4c3C(F)(F)[C@@H]3C[C@H]43)c21` [Compound 187G, N—((S)-1-(3-(4-chloro-1-methyl-3-(methylsulfonamido)-1H-indazol-7-yl)-6-(3-hydroxy-3-methylbut-1-yn-1-yl)pyridin-2-yl)-2-(3-fluorophenyl)ethyl)-2-((3b,4aR)-5,5-difluoro-3-(trifluoromethyl)-3b,4,4a,5-tetrahydro-1H-cyclopropa[3,4]cyclopenta[1,2-c]pyrazol-1-yl)acetamide] showed a CC50 with uninfected MT-4 cells of 19.8 µM. In the data set with HIV-IIIb, the “% inhibition at 0.2 μM (percent inhibition of virus-induced cell killing)” value is on record as 84% and the “% inhibition at 2 μM (percent inhibition of virus-induced cell killing)” value was 84%.

In the data set with uninfected MT-4 cells, “N—((S)-1-(3-(3-chloro-1H-benzofuro[3,2-c]pyrazol-5-yl)-6-(3-hydroxy-3-methylbut-1-yn-1-yl)pyridin-2-yl)-2-(3,5-difluorophenyl)-2-((3bS,4aR)-5,5-difluoro-3-(trifluoromethyl)-3b,4,4a,5-tetrahydro-1H-cyclopropa[3,4]cyclopenta[1,2-c]pyrazol-1-yl)acetamide [Compound 113D]” registered a CC50 of 1.09 µM. Besides, in the data set with HIV-IIIb, the “% inhibition at 2 μM (percent inhibition of virus-induced cell killing)” value is given as 97%.

As usually defined, the CC50 is the concentration at which the toxic effect on the cells reaches its halfway point. Read a low CC50 as greater toxicity to the cells. For orientation: % inhibition means the change of the read-out against control, counted positive when it falls.

The values above are taken from patent US9951043B2, “Therapeutic compounds” (Gilead Sciences, Inc., priority 2013, dated 2018).
